Test results: patent US20120309750A1, “5-MEMBERED HETEROCYCLE DERIVATIVES AND MANUFACTURING PROCESS THEREOF” (ILDONG PHARM CO., LTD., priority 2010, published 2012)

Legend:
yeast HSP90 = yeast HSP90 (Saccharomyces cerevisiae, UniProt P02829); experiment: Hsp90 ATPase assay (malachite green); type: biochemical
Procedure: (§1) For present invention, the ATPase activity of yeast HSP90 was measured using malachite green assay. Formula I compounds for primary antitumoral activity were treated in human colorectal cancer cells (HCT116) showing increased expression levels of HSP90 client protein and cotoxicity IC50 values was measured as a result.

[1] = test system: human colorectal cancer cells (HCT116); experiment: Growth inhibition assay (cytotoxicity) in HCT116; type: cell-based; settings: HCT-116
Procedure: as §1

Sequence of yeast HSP90 (P02829 whole entry): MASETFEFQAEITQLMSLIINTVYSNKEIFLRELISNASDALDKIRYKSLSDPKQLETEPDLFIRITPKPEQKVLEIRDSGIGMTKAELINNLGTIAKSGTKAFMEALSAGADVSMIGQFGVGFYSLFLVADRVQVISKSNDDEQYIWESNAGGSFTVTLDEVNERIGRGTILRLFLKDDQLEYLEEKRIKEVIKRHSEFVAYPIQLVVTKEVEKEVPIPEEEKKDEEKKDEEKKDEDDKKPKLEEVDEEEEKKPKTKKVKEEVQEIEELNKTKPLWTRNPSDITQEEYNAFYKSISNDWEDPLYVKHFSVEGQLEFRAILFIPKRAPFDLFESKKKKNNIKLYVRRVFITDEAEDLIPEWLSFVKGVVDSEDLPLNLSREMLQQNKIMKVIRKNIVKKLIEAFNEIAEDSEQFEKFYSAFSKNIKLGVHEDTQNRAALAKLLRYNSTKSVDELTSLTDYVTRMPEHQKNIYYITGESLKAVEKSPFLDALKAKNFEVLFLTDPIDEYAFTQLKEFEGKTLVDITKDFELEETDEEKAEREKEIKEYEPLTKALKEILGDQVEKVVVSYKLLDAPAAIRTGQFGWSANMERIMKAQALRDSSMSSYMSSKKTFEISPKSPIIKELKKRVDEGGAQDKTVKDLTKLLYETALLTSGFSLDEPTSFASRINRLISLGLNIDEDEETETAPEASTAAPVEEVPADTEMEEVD

Row | Compound | IC50 (yeast HSP90) [nM] | IC50 [1] [nM]
1 | CCNC(=O)c1noc(-c2cc(C(C)C)c(O)cc2O)c1-c1cc(CN2CCSCC2)no1 [Compound I-47, 5-(2,4-Dihydroxy-5-isopropylphenyl)-N-ethyl-3′-(thiomorpholinomethyl)-4,5′-biisoxazole-3-carboxamide] | < 500 | < 500
2 | CCNC(=O)c1noc(-c2cc(C(C)C)c(O)cc2O)c1-c1cc(/C=N/O)no1 [Compound I-53, 5-(2,4-Dihydroxy-5-isopropylphenyl)-N-ethyl-3′-((hydroxyimino)methyl)-4,5′-biisoxazole-3-carboxamide] | 500 to 1000 | < 500
3 | CCNC(=O)c1noc(-c2cc(C(C)C)c(O)cc2O)c1-c1cc(COCC(=O)O)no1 [Compound I-33, 2-((5-(2,4-Dihydroxy-5-isopropylphenyl)-3-(ethylcarbamoyl)-4,5′-biisoxazol-3′-yl)methoxy)acetic acid] | > 1000 | > 1000
4 | CCC(=O)NCc1noc(-c2cc(C(C)C)c(O)cc2O)c1-c1ccsc1 [Compound I-4, N-((5-(2,4-Dihydroxy-5-isopropylphenyl)-4-(thiophen-3-yl)isoxazol-3-yl)methyl)propionamide] | > 1000 | > 1000
5 | CCNC(=O)c1noc(-c2cc(C(C)C)c(O)cc2O)c1-c1noc(S)n1 [Compound I-82, 5-(2,4-Dihydroxy-5-isopropylphenyl)-N-ethyl-4-(5-mercapto-1,2,4-oxadiazol-3-yl)isoxazole-3-carboxamide] | 500 to 1000 | 500 to 1000
6 | CCNC(=O)c1noc(-c2cc(C(C)C)c(O)cc2O)c1-c1nnn(CC)n1 [Compound I-14, 5-(2,4-Dihydroxy-5-isopropylphenyl)-N-ethyl-4-(2-ethyl-2H-tetrazol-5-yl)isoxazole-3-carboxamide] | < 500 | < 500
7 | CCNC(=O)c1noc(-c2cc(C(C)C)c(O)cc2O)c1-c1cc(CNC(=O)CC)no1 [Compound I-34, 5-(2,4-Dihydroxy-5-isopropylphenyl)-N-ethyl-3′-(propionamidomethyl)-4,5′-biisoxazole-3-carboxamide] | < 500 | < 500
8 | CCNC(=O)c1noc(-c2cc(C(C)C)c(O)cc2O)c1-c1cc(/C=N/OC)no1 [Compound I-52, 5-(2,4-Dihydroxy-5-isopropylphenyl)-N-ethyl-3′-((methoxyimino)methyl)-4,5′-biisoxazole-3-carboxamide] | < 500 | < 500
9 | CCNC(=O)c1noc(-c2cc(C(C)C)c(O)cc2O)c1-c1noc(O)n1 [Compound I-80, 5-(2,4-Dihydroxy-5-isopropylphenyl)-N-ethyl-4-(5-hydroxy-1,2,4-oxadiazol-3-yl)isoxazole-3-carboxamide] | > 1000 | > 1000
10 | CCCN(CCC)Cc1cc(-c2c(C(=O)NCC)noc2-c2cc(C(C)C)c(O)cc2O)on1 [Compound I-45, 5-(2,4-Dihydroxy-5-isopropylphenyl)-3′-((dipropylamino)methyl)-N-ethyl-4,5′-biisoxazole-3-carboxamide] | < 500 | < 500
11 | CCNC(=O)c1noc(-c2cc(C(C)C)c(O)cc2O)c1-c1noc(C(Cl)(Cl)Cl)n1 [Compound I-70, 5-(2,4-Dihydroxy-5-isopropylphenyl)-N-ethyl-4-(5-(trichloromethyl)-1,2,4-oxadiazol-3-yl)isoxazole-3-carboxamide] | 500 to 1000 | 500 to 1000
12 | CCNC(=O)c1noc(-c2cc(C(C)C)c(O)cc2O)c1-c1noc(CN(C)C)n1 [Compound I-93, 5-(2,4-Dihydroxy-5-isopropylphenyl)-4-(5-((dimethylamino)methyl)-1,2,4-oxadiazol-3-yl)-N-ethylisoxazole-3-carboxamide] | 500 to 1000 | < 500
13 | CCNC(=O)c1noc(-c2cc(C(C)C)c(O)cc2O)c1-c1noc(-c2ccc(OCC)cc2)n1 [Compound I-90, 5-(2,4-Dihydroxy-5-isopropylphenyl)-4-(5-(4-ethoxyphenyl)-1,2,4-oxadiazol-3-yl)-N-ethylisoxazole-3-carboxamide] | 500 to 1000 | > 1000
14 | CCNC(=O)c1noc(-c2cc(C(C)C)c(O)cc2O)c1-c1nnnn1CC [Compound I-13, 5-(2,4-Dihydroxy-5-isopropylphenyl)-N-ethyl-4-(1-ethyl-1H-tetrazol-5-yl)isoxazole-3-carboxamide] | < 500 | < 500
15 | CCNC(=O)c1noc(-c2cc(C(C)C)c(O)cc2O)c1-c1noc(-c2ccc([N+](=O)[O-])cc2)n1 [Compound I-85, 5-(2,4-Dihydroxy-5-isopropylphenyl)-N-ethyl-4-(5-(4-nitrophenyl)-1,2,4-oxadiazol-3-yl)isoxazole-3-carboxamide] | < 500 | < 500
16 | CCNC(=O)c1noc(-c2cc(C(C)C)c(O)cc2O)c1-c1noc(CN2CCCCC2)n1 [Compound I-94, 5-(2,4-Dihydroxy-5-isopropylphenyl)-N-ethyl-4-(5-(piperidin-1-ylmethyl)-1,2,4-oxadiazol-3-yl)isoxazole-3-carboxamide] | < 500 | < 500

Row | Compound | IC50 (yeast HSP90) [nM] | IC50 [1] [nM]
17 | CCNC(=O)c1cc(-c2c(C(=O)NCC)noc2-c2cc(C(C)C)c(O)cc2O)on1 [Compound I-16, 5-(2,4-Dihydroxy-5-isopropylphenyl)-N^3,N^3′-diethyl-4,5′-biisoxazole-3,3′-dicarboxamide] | < 500 | < 500
18 | CCNC(=O)c1noc(-c2cc(C(C)C)c(O)cc2O)c1-c1noc(-c2ccccc2)n1 [Compound I-61, 5-(2,4-Dihydroxy-5-isopropylphenyl)-N-ethyl-4-(5-phenyl-1,2,4-oxadiazol-3-yl) isoxazole-3-carboxamide] | < 500 | < 500
19 | CCNC(=O)c1noc(-c2cc(C(C)C)c(O)cc2O)c1-c1cc(C(=O)N2CCSCC2)no1 [Compound I-50, 5-(2,4-Dihydroxy-5-isopropylphenyl)-N-ethyl-3′-(thiomorpholine-4-carbonyl)-4,5′-biisoxazole-3-carboxamide] | 500 to 1000 | < 500
20 | CCNC(=O)c1noc(-c2cc(C(C)C)c(O)cc2O)c1-c1ccn(C(C)C)n1 [Compound I-100, 5-(2,4-Dihydroxy-5-isopropylphenyl)-N-ethyl-4-(1-isopropyl-1H-pyrazol-3-yl)isoxazole-3-carboxamide] | 500 to 1000 | < 500
21 | CCNC(=O)c1noc(-c2cc(C(C)C)c(O)cc2O)c1-c1cc[nH]n1 [Compound I-96, 5-(2,4-Dihydroxy-5-isopropylphenyl)-N-ethyl-4-(1H-pyrazol-3-yl)isoxazole-3-carboxamide] | 500 to 1000 | < 500
22 | CCNC(=O)c1noc(-c2cc(C(C)C)c(O)cc2O)c1-c1cc(COCC(=O)OC)no1 [Compound I-19, Methyl 2-((5-(2,4-dihydroxy-5-isopropylphenyl)-3-(ethylcarbamoyl)-4,5′-biisoxazol-3′-yl)methoxy)acetate] | < 500 | < 500
23 | CCNC(=O)c1nc(-c2c(C(=O)NCC)noc2-c2cc(C(C)C)c(O)cc2O)no1 [Compound I-59, 3-(5-(2,4-Dihydroxy-5-isopropylphenyl)-3-(ethylcarbamoyl)isoxazol-4-yl)-N-ethyl-1,2,4-oxadiazole-5-carboxamide] | 500 to 1000 | < 500
24 | CCNC(=O)c1noc(-c2cc(C(C)C)c(O)cc2O)c1-c1cc(CO)no1 [Compound I-17, 5-(2,4-Dihydroxy-5-isopropylphenyl)-N-ethyl-3′-(hydroxymethyl)-4,5′-biisoxazole-3-carboxamide] | < 500 | < 500
25 | CCNC(=O)c1noc(-c2cc(C(C)C)c(O)cc2O)c1-c1nnn[nH]1 [Compound I-10, 5-(2,4-Dihydroxy-5-isopropylphenyl)-N-ethyl-4-(1H-tetrazol-5-yl)isoxazole-3-carboxamide] | 500 to 1000 | > 1000
26 | CCNC(=O)c1noc(-c2cc(C(C)C)c(O)cc2O)c1-c1cc(CN(C)C)no1 [Compound I-41, 5-(2,4-Dihydroxy-5-isopropylphenyl)-3′-((dimethylamino)methyl)-N-ethyl-4,5′-biisoxazole-3-carboxamide] | < 500 | < 500
27 | CCNC(=O)c1noc(-c2cc(C(C)C)c(O)cc2O)c1-c1cc(CNC(C)C)no1 [Compound I-40, 5-(2,4-Dihydroxy-5-isopropylphenyl)-N-ethyl-3′-((isopropylamino)methyl)-4,5′-biisoxazole-3-carboxamide] | 500 to 1000 | < 500
28 | CCNC(=O)c1noc(-c2cc(C(C)C)c(O)cc2O)c1-c1noc(CN2CCCC2)n1 [Compound I-95, 5-(2,4-Dihydroxy-5-isopropylphenyl)-N-ethyl-4-(5-(pyrrolidin-1-ylmethyl)-1,2,4-oxadiazol-3-yl)isoxazole-3-carboxamide] | 500 to 1000 | < 500
29 | CCNC(=O)c1noc(-c2cc(C(C)C)c(O)cc2O)c1-c1cnn(C)c1 [Compound I-102, 5-(2,4-Dihydroxy-5-isopropylphenyl)-N-ethyl-4-(1-methyl-1H-pyrazol-4-yl)isoxazole-3-carboxamide] | < 500 | < 500
30 | CCNC(=O)c1noc(-c2cc(C(C)C)c(O)cc2O)c1-c1cc(-c2ccsc2)no1 [Compound I-46, 5-(2,4-Dihydroxy-5-isopropylphenyl)-N-ethyl-3′-(thiophen-3-yl)-4,5′-biisoxazole-3-carboxamide] | 500 to 1000 | < 500
31 | CCNC(=O)c1noc(-c2cc(C(C)C)c(O)cc2O)c1-c1cc(COS(C)(=O)=O)no1 [Compound I-32, (5-(2,4-Dihydroxy-5-isopropylphenyl)-3-(ethylcarbamoyl)-4,5′-biisoxazol-3′-yl)methyl methanesulfonate] | < 500 | < 500
32 | CCNC(=O)c1noc(-c2cc(Cl)c(O)cc2O)c1-c1cc(CO)no1 [Compound I-24, 5-(5-Chloro-2,4-dihydroxyphenyl)-N-ethyl-3′-(hydroxymethyl)-4,5′-biisoxazole-3-carboxamide] | 500 to 1000 | > 1000
